Results as given in PMC8119466, “A screen of FDA-approved drugs identifies inhibitors of protein tyrosine phosphatase 4A3 (PTP4A3 or PRL-3)” (Scientific Reports, 2021).
Structures can show the parent of a compound that is named as a salt.

How the values were obtained:
recombinant PRL-2 = target: T1, recombinant PRL-2 (Homo sapiens, UniProt Q12974); assay: In vitro phosphatase assay (DiFMUP hydrolysis), PRL-2; assay type: biochemical; settings: for % Phosphatase Activity (compared to DMSO) PRL-2: FDA-approved drug screen;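 on all read-outs here: PRL-2 activity read as DiFMUP hydrolysis after 20 min at room temperature with drug, enzyme first pre-reduced at 4 °C for 20 min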
T1 construct: 6xHis (N, cleaved yes); made in house; host or cells: E. coli One Shot BL21 Star
T1 sequence (Q12974 1-167): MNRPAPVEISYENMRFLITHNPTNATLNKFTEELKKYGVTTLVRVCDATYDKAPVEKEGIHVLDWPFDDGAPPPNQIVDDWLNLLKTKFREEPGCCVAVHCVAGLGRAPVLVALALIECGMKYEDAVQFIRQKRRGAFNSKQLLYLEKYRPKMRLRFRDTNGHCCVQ

recombinant PRL-3 = target: T2, recombinant PRL-3 (Homo sapiens, UniProt O75365); assay: In vitro phosphatase assay (DiFMUP hydrolysis), PRL-3; assay type: biochemical; settings: for % Phosphatase Activity (compared to DMSO) PRL-3: FDA-approved drug screen
T2 construct: 6xHis (N, cleaved yes); made in house; host or cells: E. coli One Shot BL21 Star
T2 sequence (O75365 whole entry): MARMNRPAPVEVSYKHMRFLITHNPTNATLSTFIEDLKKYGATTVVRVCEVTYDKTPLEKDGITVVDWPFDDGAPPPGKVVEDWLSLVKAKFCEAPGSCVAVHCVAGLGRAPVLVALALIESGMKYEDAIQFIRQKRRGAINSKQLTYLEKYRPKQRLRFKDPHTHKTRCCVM

Molecule: CC1(C)CCC(CN2CCN(c3ccc(C(=O)NS(=O)(=O)c4ccc(NCC5CCOCC5)c([N+](=O)[O-])c4)c(Oc4cnc5[nH]ccc5c4)c3)CC2)=C(c2ccc(Cl)cc2)C1 [ABT-199, reference compound]
- selectivity in inhibiting PRL-2 over other PRLs (recombinant PRL-2; drug 40 µM): demonstrated selectivity in inhibiting PRL-2

Molecule: CCN(CC)CCOC(=O)C(c1ccccc1)c1ccccc1 [Adiphenine HCl]
- % Phosphatase Activity (compared to DMSO) PRL-2 (recombinant PRL-2): 101%
- % Phosphatase Activity (compared to DMSO) PRL-3 (recombinant PRL-3): 82%

Molecule: CN(C)C/C=C/C(=O)Nc1cc2c(Nc3ccc(F)c(Cl)c3)ncnc2cc1O[C@H]1CCOC1 [Afatinib (BIBW2992)]
- % Phosphatase Activity (compared to DMSO) PRL-2 (recombinant PRL-2): 106%
- % Phosphatase Activity (compared to DMSO) PRL-3 (recombinant PRL-3): 85%

Molecule: CC1(C)S[C@@H]2[C@H](NC(=O)[C@H](N)c3ccc(O)cc3)C(=O)N2[C@H]1C(=O)O [Amoxicillin]
- % Phosphatase Activity (compared to DMSO) PRL-2 (recombinant PRL-2): 150%
- % Phosphatase Activity (compared to DMSO) PRL-3 (recombinant PRL-3): 106%

Molecule: Cc1c(-c2ccc(O)cc2)n(Cc2ccc(OCCN3CCCCCC3)cc2)c2ccc(O)cc12 [Bazedoxifene Acetate]
- % Phosphatase Activity (compared to DMSO) PRL-2 (recombinant PRL-2): 106%

Molecule: CCC1(C)CC(=O)NC(=O)C1 [Bemegride]
- % Phosphatase Activity (compared to DMSO) PRL-2 (recombinant PRL-2): 97%
- % Phosphatase Activity (compared to DMSO) PRL-3 (recombinant PRL-3): 81%

Molecule: O=C(O)c1ccccc1 [Benzoic Acid]
- % Phosphatase Activity (compared to DMSO) PRL-2 (recombinant PRL-2): 101%
- % Phosphatase Activity (compared to DMSO) PRL-3 (recombinant PRL-3): 76%

Molecule: O=C(O)CCCN1CCC(O[C@@H](c2ccc(Cl)cc2)c2ccccn2)CC1.O=S(=O)(O)c1ccccc1 [Bepotastine Besilate]
- % Phosphatase Activity (compared to DMSO) PRL-2 (recombinant PRL-2): 113%
- % Phosphatase Activity (compared to DMSO) PRL-3 (recombinant PRL-3): 98%

Molecule: COc1cc2c(cc1OC)[C@@]13CCN4CC5=CCO[C@H]6CC(=O)N2[C@H]1[C@H]6[C@H]5C[C@H]43 [Brucine]
- % Phosphatase Activity (compared to DMSO) PRL-2 (recombinant PRL-2): 86%
- % Phosphatase Activity (compared to DMSO) PRL-3 (recombinant PRL-3): 83%

Molecule: COc1cc(OC)c(C(=O)CCCN2CCCC2)c(OC)c1.Cl [Buflomedil HCl]
- % Phosphatase Activity (compared to DMSO) PRL-2 (recombinant PRL-2): 118%
- % Phosphatase Activity (compared to DMSO) PRL-3 (recombinant PRL-3): 87%

Molecule: COc1cc2nccc(Oc3ccc(NC(=O)C4(C(=O)Nc5ccc(F)cc5)CC4)cc3)c2cc1OC [Cabozantinib (XL184, BMS-907351)]
- % Phosphatase Activity (compared to DMSO) PRL-2 (recombinant PRL-2): 96%
- % Phosphatase Activity (compared to DMSO) PRL-3 (recombinant PRL-3): 75%

Molecule: COc1cc2nccc(Oc3ccc(NC(=O)C4(C(=O)Nc5ccc(F)cc5)CC4)cc3)c2cc1OC.O=C(O)C[C@H](O)C(=O)O [Cabozantinib malate (XL184)]
- % Phosphatase Activity (compared to DMSO) PRL-2 (recombinant PRL-2): 115%
- % Phosphatase Activity (compared to DMSO) PRL-3 (recombinant PRL-3): 96%

Molecule: Cc1ccc([C@@H]2O[C@H](CO)[C@@H](O)[C@H](O)[C@H]2O)cc1Cc1ccc(-c2ccc(F)cc2)s1 [Canagliflozin]
- % Phosphatase Activity (compared to DMSO) PRL-2 (recombinant PRL-2): 106%
- % Phosphatase Activity (compared to DMSO) PRL-3 (recombinant PRL-3): 90%

Molecule: CC1(C)S[C@@H]2[C@H](NC(=O)C(C(=O)O)c3ccccc3)C(=O)N2[C@H]1C(=O)O (some centres unmarked) [Carbenicillin disodium]
- % Phosphatase Activity (compared to DMSO) PRL-2 (recombinant PRL-2): 101%
- % Phosphatase Activity (compared to DMSO) PRL-3 (recombinant PRL-3): 87%

Molecule: CN(C)CCC(c1ccc(Cl)cc1)c1ccccn1 (centres unmarked) [Chlorpheniramine Maleate]
- % Phosphatase Activity (compared to DMSO) PRL-2 (recombinant PRL-2): 103%
- % Phosphatase Activity (compared to DMSO) PRL-3 (recombinant PRL-3): 104%

Molecule: CN(C)CCCN1c2ccccc2Sc2ccc(Cl)cc21 [Chlorpromazine HCl]
- % Phosphatase Activity (compared to DMSO) PRL-2 (recombinant PRL-2): 109%
- % Phosphatase Activity (compared to DMSO) PRL-3 (recombinant PRL-3): 81%

Molecule: Cc1cc(C2CCCCC2)n(O)c(=O)c1 [Ciclopirox]
- % Phosphatase Activity (compared to DMSO) PRL-2 (recombinant PRL-2): 111%
- % Phosphatase Activity (compared to DMSO) PRL-3 (recombinant PRL-3): 76%

Molecule: COc1ccc([C@]2(C#N)CC[C@@H](C(=O)O)CC2)cc1OC1CCCC1 [Cilomilast]
- % Phosphatase Activity (compared to DMSO) PRL-2 (recombinant PRL-2): 99%
- % Phosphatase Activity (compared to DMSO) PRL-3 (recombinant PRL-3): 88%

Molecule: C[C@@H](NCCCc1cccc(C(F)(F)F)c1)c1cccc2ccccc12 [Cinacalcet HCl]
- % Phosphatase Activity (compared to DMSO) PRL-2 (recombinant PRL-2): 114%
- % Phosphatase Activity (compared to DMSO) PRL-3 (recombinant PRL-3): 81%

Molecule: C[C@@H]1C[C@H]2[C@@H]3CCC4=CC(=O)C=C[C@]4(C)[C@@]3(F)[C@@H](O)C[C@]2(C)[C@@]1(O)C(=O)CO [Dexamethasone, reference compound]
- effect on PRL phosphatase activity (DiFMUP hydrolysis), in words (recombinant PRL-3; PRL-1, PRL-2, PRL-3 for research-grade inhibitors, PRL-3 for Dexamethasone): no effect on PRL-3 phosphatase activity

Molecule: Aprotinin
- % Phosphatase Activity (compared to DMSO) PRL-2 (recombinant PRL-2): 90%
